Literature values in US8679534B2, “HMG-CoA reductase inhibitor extended release formulation” (Andrx Labs, LLC, priority 1997, dated 2014).

System: blood serum cholesterol level
Details: background statement

CC[C@H](C)C(=O)O[C@H]1C[C@@H](C)C=C2C=C[C@H](C)[C@H](CC[C@@H]3C[C@@H](O)CC(=O)O3)[C@H]21 [Lovastatin, lovastatin]
lowering of the blood serum cholesterol level: 30-40%
